{
  "source": "patent EP0934746B1",
  "about": "“SUBSTANCE IN THE FORM OF AN AQUEOUS EXTRACT OF VEGETAL RAW MATERIAL FOR TREATING ONCOLOGICAL DISEASES, AND METHOD FOR PRODUCING THE SAME” (Gosudarstvenny Nauchny Tsentr Rossiiskoi Federatsii …, priority 1996, dated 1998)",
  "key": {"[1]": {"tested_on": "lipid peroxidation processes (LPP) in murine liver homogenate", "assay": "Antioxidant activity: inhibition of lipid peroxidation processes (LPP) in liver homogenate, thiobarbituric acid colour reaction", "type": "biochemical, BDF-1 (nondescript) mice", "settings": "conventional unit = quantity required for 50% inhibition of LPP; 3 h at 37°C", "description": "The antioxidant activity of the extracts was determined from the ability of a sample to inhibit the lipid peroxidation processes (LPP) in murine liver homogenate.\nThe antioxidant activity was used by using a method based on the ability of the sample being investigated to inhibit LPP processes in murine liver homogenate. The liver of BDF-1 (nondescript) mice was homogenized in a glass homogenizer and then centrifugated. The liver homogenate was introduced in an amount of 5-6 mg of protein per assay. The volume of the assay was brought to 0.5 ml with a solution of the sample being tested for the antioxidant activity. The assays were incubated for 3 h at 37°C.\nThe concentration of the LPP products was determined from the color reaction with thiobarbituric acid. The quantity of the antioxidant required for the 50% inhibition of LPP was adopted as a conventional unit of the sample under investigation."}, "[2]": {"tested_on": "cell culture of human pulmonary adenocarcinoma A-549", "assay": "Cytotoxic activity in vitro: inhibition of proliferation of A-549 cell culture, colorimetric", "type": "cell-based", "description": "The cytotoxic activity of the extracts in vitro was determined with the help of a biological test based on inhibition of the proliferation of the inoculated cell culture of human pulmonary adenocarcinoma A-549 [7].\nWhen carrying out the cytotoxic biological test in vitro, each well of a flat-bottomed 96-well microtiter (Sarstedt, USA) was charged with 10 µl of a suspension of A549-line cells in a concentration of 1x10^5 cell/ml; 24 h later series dilutions of the vegetable preparations in the range of 1:4-1:64 were added, this corresponding to 3.0-0.1 mg/ml in the volume of 100 µl/well. The cytotoxic activity of the extracts and DDP was estimated colorimetrically. The results were expressed in the percentage of inhibition of the A-549 test-culture proliferation. The cytotoxic activity of the sample was adopted to be the maximum titer of the sample, at which the biologically significant (50%) level of inhibition of the A-549 test-culture proliferation was observed."}, "Lymphoid leukemia L1210": {"tested_on": "Lymphoid leukemia L1210", "assay": "Influence of extract samples on curative effect of DDP in L1210 leukemia (TGI, LI)", "type": "in vivo, mice BDF1", "settings": "for TGI, % days 4: day 4; for TGI, % days 6: day 6; for TGI, % days 8: day 8; for LI, %: lifetime increase", "description": "In addition, the effect of the extracts on the therapeutic activity of the cytostatic cis-dichlorodiamine platinum (DDP) was estimated.\nLymphoid leukemia L1210 was inoculated to BDF1 males in a sterile physiologic salt solution, 3x10^6 cells in 0.2 ml volume. The day of the inoculation was regarded as the zero day of tumor growth. The extract samples and DDP were administered in the doses and under the conditions specified in Tables 4, 5.\nTreatment of the animals was started 24 hours after the tumor inoculation, control animals were administered a physiologic salt solution instead of the vegetable extracts. The antitumoric effect was estimated from the tumor growth inhibition (TGI) calculated from theformula: TGI = [(Vcontrol - Vexperiment)/Vcontrol]x100%; [formula] mean lifetime (ML), lifetime increase (LI) calculated from the formula: LI = [(MLexperiment - MLcontrol)/Mlcontrol]x100%. [formula] TGI > 50%, LI > 50% were considered to be biologically significant effects.\nThe obtained data were processed in accordance with the Fisher-Student procedure, using statistical programs. The differences were regarded confident at p < 0.05."}},
  "data": [
    {"molecule": "CC1=C(/C=C/C(C)=C/C=C/C(C)=C/C=C/C=C(C)/C=C/C=C(C)/C=C/C2=C(C)CCCC2(C)C)C(C)(C)CCC1", "note": "[β-Carotene]", "values": [
      {"measurement": "Antioxidant activity, conv. units (1/mg)", "setting": "[1]", "result": "6 conv. units (1/mg)"}
    ]},
    {"molecule": "N.N.[Cl][Pt][Cl]", "note": "[DDP, cis-dichlorodiamine platinum]", "values": [
      {"measurement": "Inhibition, %", "setting": "[2]; A-549 proliferation, at the titer/concentration in the column beside it", "result": 68, "unit": "%"},
      {"measurement": "Maximum titer (as concentration)", "setting": "[2]; DDP control", "result": 10, "unit": "µg/mL"},
      {"measurement": "ability to inhibit proliferation of the cell culture A-549", "setting": "[2]; at the concentration of 0.01 mg/ml", "result": 68, "unit": "%"},
      {"measurement": "TGI, % days 4", "setting": "Lymphoid leukemia L1210; DDP alone 9 mg/kg", "result": 100, "unit": "%"},
      {"measurement": "TGI, % days 6", "setting": "Lymphoid leukemia L1210; DDP alone 9 mg/kg", "result": 93, "unit": "%"},
      {"measurement": "TGI, % days 8", "setting": "Lymphoid leukemia L1210; DDP alone 9 mg/kg", "result": 33, "unit": "%"},
      {"measurement": "LI, %", "setting": "Lymphoid leukemia L1210; DDP alone 9 mg/kg", "result": 41, "unit": "%"},
      {"measurement": "TGI, % days 4", "setting": "Lymphoid leukemia L1210; DDP alone 10 mg/kg", "result": 100, "unit": "%"},
      {"measurement": "TGI, % days 6", "setting": "Lymphoid leukemia L1210; DDP alone 10 mg/kg", "result": 87, "unit": "%"},
      {"measurement": "TGI, % days 8", "setting": "Lymphoid leukemia L1210; DDP alone 10 mg/kg", "result": 65, "unit": "%"},
      {"measurement": "LI, %", "setting": "Lymphoid leukemia L1210; DDP alone 10 mg/kg", "result": 32, "unit": "%"}
    ]},
    {"molecule": "Retinol acetate [Retinol acetate (vitamin A)]", "values": [
      {"measurement": "Antioxidant activity, conv. units (1/mg)", "setting": "[1]", "result": "83 conv. units (1/mg)"}
    ]},
    {"molecule": "O=C1O[C@H]([C@@H](O)CO)C(O)=C1O", "note": "[Ascorbic acid (vitamin C), Ascorbic acid]", "values": [
      {"measurement": "Antioxidant activity, conv. units (1/mg)", "setting": "[1]", "result": "12 conv. units (1/mg)"}
    ]}
  ]
}
